Like-named read-outs stand apart in the source and are kept apart here.

The values that follow come from patent US5827836A, “Retinoid glycerol phospholipid conjugates” (Clarion Pharmaceuticals Inc., priority 1996, dated 1998).

Data set [1] deals with human tumor cell line HL-60. The data set can be described thus: HL-60 cell viability (trypan blue exclusion). Particulars: for viability at 10 µM / viability at 30 µM / viability at 100 µM: Homo sapiens; for cell viability (in words): HL-60, compared to retinoic acid. Type of data set: cell-based. How it is done: (§1) Use of the HL-60 cell line in evaluating the anti-tumor activity of retinoids is reported in the literature, for example, see Janick-Buckner, D. et al.,FASEB J. 5:320-325; 1991
(§2) 1. Human tumor cell line HL-60 (ATCC CCL 240), obtainable from the American Type Culture Collection (ATCC), a promyelocytic leukemia cell line.
(§3) 2. Culture media: Roswell Park Memorial Institute-1640 (RPMI-1640) plus 10% Fetal Bovine Serum (FBS).
(§4) 3. Standard protocol for culturing cell lines: in T-75 or T-150 flasks; 37° C.; 95% air, 5% CO2; 100% humidity.
(§5) a. The HL 60 cell line is passaged by removing approximately 75% of the media and cell mixture and adding an equal amount of fresh media once or twice a week.
b. All procedures are performed aseptically in a Class II biological safety cabinet using standard BL-2 containment procedures. At approximately monthly intervals, fresh cells are thawed from liquid nitrogen storage in order to prevent genetic drift in stock cell lines.
a. after cell passage, count cells with a hemacytometer;
b. adjust concentration to approximately 20,000 cells per 100 μL;
C. pipette 100 μL cell suspension per well of a standard 96-well microtiter plate;
d. add test compound dissolved in phosphate buffered saline (PBS), or in DMSO for the comparative compound, retinoic acid, for final concentration levels ranging from 0 to 100 μM;
e. adjust volume to 200 μL/well by adding RPMI-1640;; and
f. incubate 72 hours under standard culture conditions and determine end points.
6. End Point 2: Cell Viability:
a. Add 100 μL/well of 0.5% (w/v) trypan blue in PBS.
b. Using a hemacytometer, determine the percent viable cells by calculating the ratio of cells that exclude trypan blue to the total number of cells.

Data set [2] in a line: Liposome formation in PBS. The class given is physicochemical. Particulars: sonication. From the text:
Solutions of the subject compounds of Formula (I) in PBS (phisphate-buffered saline) have characteristics indicative of the presence of liposomes. These preparations require sonication in order to form uniform, cloudy suspensions. The requirement for sonication and the cloudy appearance of the suspensions are some known properties of liposomal preparations. Additionally, foam generation, which is associated with micellar suspensions, is not a property of these preparations.

Data set [3] relates to RAW 264.7 murine monocyte/macrophage line. The data set is described as follows: Anti-inflammatory activity by inhibition of macrophage chemiluminescence (respiratory burst, PMA-stimulated, luminol). Particulars: for minimal effective concentration: PMA-stimulated RAW 264.7, read-out: concentration at which marked inhibition of luminescence is seen. The class given is cell-based. From the text:
Assay for Anti-inflammatory Activity by Inhibition of Macrophage Chemiluminescence
The RAW 264.7 cell line (available from the ATCC under accession no. TIB 71) is a murine monocyte/macrophage line the cells of which show many of the differentiative functions of a macrophage. Like macrophages, the cells are capable of phagocytosis and undergo an oxidative burst (increased oxygen consumption) and production of oxygen radicals (e.g., superoxide) in response to appropriate signals. Agents that inhibit the activation of these cells in vitro, so as to inhibit the respiratory burst and corresponding production of oxygen radicals associated with the activation, are therefore inhibitors of macrophage activation and critical steps in inflammatory processes. These agents are likely, then to be anti-inflammatories.
The respiratory burst and corresponding production of oxygen radicals that accompany macrophage activation can be measured in a variety of ways, including chemiluminescence based on the reaction of the oxygen radicals with luminol added to the culture medium (see M. A. Trush et al, 1978, "The Generation of Chemiluminescence by Phagocytic Cells." Methods in Enzymology 57: 462-494). Indeed, chemiluminescence generated from luminol in the culture medium of macrophage cell lines is recognized in the art as a marker of macrophage activation.
Cell line: RAW 264.7 (ATCC TIB 71);
1. Culture medium: DMEM with 5% FBS (attachment dependent);
2. Standard protocol for culturing cell lines: in T-75 or T-150 flasks; 37° C.; 95% air, 5% CO2; 100% humidity;
3. Cell lines are passaged when approximately 80% confluent; with trypsin (1 mg/mL) and EDTA ([…] in Ca-Mg free Hank's balanced salt solution); at a 1:4 to 1:5 split;
4. Trypsinize the cells and count with a hemacytometer;
5. Adjust concentration of cells to approximately 1,000,000 cells per mL;
6. Suspend cells in DMEM lacking phenol red and without FBS;
7. Pipette 1 mL into a standard luminometer cuvet (12×75), commercially obtainable from Analytical Luminescence Laboratories, San Diego;
8. Add luminol to final concentration of 1 μM;
9. Add test compound (0, 1, 3, 10, 30 μM);
10. Add 100 nanograms of phorbol myristate acetate (PMA);
11. Wait 1 minute and read photo counts (i.e., luminescence) on a Monolight 2010 luminometer available from Analytical Luminescence Laboratories;
The results are represented in Table 2, which illustrates the marked inhibition of luminescence by the compounds tested (CPR 2003 and CPR 2004) at concentrations above 3 μM. Results are calculated as percent of control (no test compound present).

The test system of data set [4] is human tumor cell line HL-60. The data set can be described thus: HL-60 cell proliferation (in vitro HL-60 cell inhibition assay, SRB). The class given is cell-based. As to conditions: particularly against leukemia. How it is done: as §1, §2, §3, §4, §5
b. […]
j. Read absorbance at 562 nm using a standard 96-well microtiter plate reader. Absorbance readings are linear with dye concentrations below 1.8 absorbance units. To reduce absorbance, decrease wavelength at which measurements are taken;
single point reading; the higher the absorbance, the higher the cell number; […]
initial control cell number (ICCN)-no test compound present in culture medium, end point determined at the time of treatment;
final control cell number (FCCN)-no test compound present in culture medium, end point determined at 72 hours after treatment;
final cell number (FCN)-test compound present in culture medium, end point determined at 72 hours after treatment; […]

Data set [5] concerns PAM-212 murine keratinocyte cell line. The data set is described as follows: Anti-psoriatic activity by inhibition of keratinocyte proliferation (PAM-212, SRB). The class given is cell-based, murine (BALB/c mice). Particulars: for minimal effective concentration: Mus musculus, PAM212, PAM-212, 72 hours, FIG. 2, read-out: concentration at which marked inhibition of cell growth is seen; for inhibition of keratinocyte proliferation (in words): in vitro. The method, then:
Assay for Anti-psoriatic Activity by Inhibition of Keratinocyte Proliferation:
1. Cell line: PAM-212 murine keratinocyte cell line isolated and cultivated from newborn BALB/c mice (see S. H. Yuspa et al., Cancer Research, 40, 4694-4703, December, 1980) that appears to retain many characteristics of normal keratinocytes.
2. Culture medium: 1:1 DMEM and Ham's F-12 with 10% FBS.
3. Standard protocol for culturing cell lines; in T-75 or T-150 flasks; 37° C.; 95% air, 5% CO2; 100% humidity. Cell line PAM-212 is passaged when approximately 80% confluent; with trypsin (1 mg/mL) and EDTA (1 mM EDTA in Ca-Mg free Hank's balanced salt solution); at a 1:4 to 1:5 split.
a. All procedures are performed aseptically in a Class II biological safety cabinet using standard BL-2 containment procedures. At approximately monthly intervals, fresh cells are thawed from liquid nitrogen storage in order to prevent genetic drift in stock cell lines.
After cell passage, count cells with a hemacytometer;
a. Adjust concentration to approximately 1,000 cells per 100 μL;
b. Pipette 100 μL cell suspension per well of a standard 96-well microtiter plate;
c. Preincubate 24 hours to allow cells to attach;
d. Add test compound dispersed in phosphate buffered saline (PBS), or in DMSO for the comparative compound, retinoic acid, to achieve final concentration levels ranging from 0 to 100 μM;
e. Adjust volume to 200 μL/well by adding DMEM/F12; and
f. Incubate 72 hours under standard culture conditions and determine end points.
Remove media and add 100 μL/well of cold (4° C.) 10% (w/v) trichloroacetic acid (TCA) in water;
a. After 1 hour at 4° C., remove TCA and rinse cells 5 times with tap water;
c. Add 50 μL/well of 0.4% (w/v) sulforhodamine B (SRB) in 1% (v/v) acetic acid in water;
d. After 30 minutes at room temperature, rinse cells 4 times with 1% (v/v) acetic acid in water to remove residual stain;
f. Dissolve stain by adding 100 μL/well of unbuffered Tris base, pH 10.5;
g. Read absorbance at 562 nm using a standard 96-well microtiter plate reader. Absorbance readings are linear with dye concentrations below 1.8 absorbance units. To reduce absorbance, decrease wavelength at which measurements are taken.
single point reading; the higher the absorbance, the higher the cell number;
a. background-no cell and no test compound present in culture medium;
b. control-no test compound present in culture medium;
c. initial control cell number (ICCN)-no test compound present in culture medium, end point determined at the time of treatment;
d. final control cell number (FCCN)-no test compound present in culture medium, end point determined at 72 hours after treatment;
e. final cell number (FCN)-test compound present in culture medium, end point determined at 72 hours after treatment;
ICCN=A(control, zero hour)-A(background) […]

For data set [6] the following is noted: R. Andreesen, Prog. Biochem. Pharmacol., 22, 118-131; cited from earlier work.
Where [7] appears, read: Mus musculus, RAW264.7, read-out: % Inhibition of respiratory burst.
[8] abbreviates: RAW264.7, PMA-stimulated mouse macrophages, 1 μM, read-out: % Inhibition of respiratory burst.
The mark [9] stands for this setting: RAW264.7, PMA-stimulated mouse macrophages, 3 μM, read-out: % Inhibition of respiratory burst.
Setting [10] is: RAW264.7, PMA-stimulated mouse macrophages, 10 μM, read-out: % Inhibition of respiratory burst.
[11] abbreviates: RAW264.7, PMA-stimulated mouse macrophages, 30 μM, read-out: % Inhibition of respiratory burst.

As to `CC1=C(/C=C/C(C)=C/C=C/C(C)=C/C(=O)O)C(C)(C)CCC1` [Retinoic Acid, retinoic acid, reference compound], the viability (commonly a read-out of living cells in per cent, often relative to untreated cells) at 10 µM in data set [1] (HL-60, 10 μM, 72 hours, read-out: % Viability) was 87%. The viability at 30 µM in data set [1] (HL-60, 30 μM, 72 hours, read-out: % Viability) was determined as 70%. In addition, the viability at 100 µM in data set [1] (HL-60, 100 μM, 72 hours, read-out: % Viability) was 0%. Also, the “liposome formation (in words)” value in data set [2] was “unlike retinoic acid, the subject compounds are capable of forming liposomes”. In data set [3] (setting [7]), the inhibition (as a rule, the share of the control response that was lost under treatment) at 1 µM stood at 2%; the inhibition at 3 µM worked out at 6%; the inhibition at 10 µM came out at 3%; the inhibition at 30 µM amounted to 6%.
Turning to `CCCCCCCCCCCCCCCCCCOCC(COC(=O)/C=C(C)/C=C/C=C(C)/C=C/C1=C(C)CCCC1(C)C)OP(=O)([O-])OCC[N+](C)(C)C` (stereo not drawn) [CPR 2004, 1-O-n-Octadecyl-3-(all-trans-retinoyl)-glycero-2-phosphocholine], in data set [4], the “anti-tumor or anti-cancer activity (in words)” value was “marked anti-tumor or anti-cancer activity”. Further, the “cell viability (in words)” value in data set [1] is on record as “relatively high cell viability”. In data set [1] (HL-60, 72 h), this compound showed a viability at 10 µM of 92%, a viability at 30 µM of 94% and a viability at 100 µM of 59%. In data set [5], the minimal effective concentration is above 10 µM and the “inhibition of keratinocyte proliferation (in words)” value is on record as “markedly inhibit proliferation of these cells in vitro”. Also, the “reduction of macrophage activation (in words)” value in data set [3] is reported as “markedly reduce macrophage activation”. Also, the minimal effective concentration in data set [3] (Mus musculus, RAW264.7) is above 3 µM. Also, the inhibition at 1 µM in data set [3] (setting [8]) amounted to 14%. Moreover, the inhibition at 3 µM in data set [3] (setting [9]) worked out at 55%. Also, the inhibition at 10 µM in data set [3] (setting [10]) was determined as 93%. Besides, in data set [3] (setting [11]), the inhibition at 30 µM was 99%.
On to `CCCCCCCCCCCCCCCCCCOC[C@H](COP(=O)([O-])OCC[N+](C)(C)C)OC` [ET 18-OCH3, 1-O-octadecyl-2-O-methyl-sn-glycero-3-phosphocholine], for which the “anti-tumor activity (in words)” value in data set [6] is “markedly potent anti-tumor activity”.
In the case of `CCCCCCCCCCCCCCCCCCOCC(COP(=O)([O-])OCC[N+](C)(C)C)OC(=O)/C=C(C)/C=C/C=C(C)/C=C/C1=C(C)CCCC1(C)C` (stereo not drawn) [CPR 2003, 1-O-n-Octadecyl-2-(all-trans-retinoyl)-glycero-3-phosphocholine], in data set [4], the “anti-tumor or anti-cancer activity (in words)” value is reported as “marked anti-tumor or anti-cancer activity”. Further, the “cell viability (in words)” value in data set [1] is given as “relatively high cell viability”. In data set [1] (HL-60, 72 h), this compound came in with a viability at 10 µM of 97%, a viability at 30 µM of 93% and a viability at 100 µM of 97%. Besides, in data set [5], the minimal effective concentration is above 1 µM and the “inhibition of keratinocyte proliferation (in words)” value is on record as “markedly inhibit proliferation of these cells in vitro”. Moreover, the “reduction of macrophage activation (in words)” value in data set [3] is reported as “markedly reduce macrophage activation”. Also, in data set [3] (Mus musculus, RAW264.7), the minimal effective concentration was above 3 µM. Besides, in data set [3] (setting [8]), the inhibition at 1 µM was 19%. For the same compound, in data set [3] (setting [9]), the inhibition at 3 µM amounted to 40%. Moreover, the inhibition at 10 µM in data set [3] (setting [10]) came to 81%. In data set [3] (setting [11]), the inhibition at 30 µM came out at 99%.
